# Measured values from ChEMBL document CHEMBL2176983, “Hispidin analogue davallialactone attenuates carbon tetrachloride-induced hepatotoxicity in mice” (J Nat Prod, 2012).
# Calls of active or inactive are those of the source. The calls are words filed in the database; no cut-off is given here.
# Assays:
# Assay type in all cases: functional, organism-based
# [1] = test system: Mus musculus; assay: Hepatoprotective activity in FVB mouse assessed as reduction of CCL4-induced increase of serum AST level at 2.5 to 10 mg/kg, sc administered for 3 consecutive days prior CCL4 challenge measured 12 to 24 hrs post challenge
# [2] = test system: Mus musculus; assay: Hepatoprotective activity in CCL4-induced FVB mouse assessed as decrease in serum TNFalpha level at 2.5 to 10 mg/kg, sc administered for 3 consecutive days prior CCL4 challenge measured 12 to 24 hrs post challenge by ELISA relative to control
# [3] = test system: Mus musculus; assay: Hepatoprotective activity in CCL4-induced FVB mouse assessed as decrease in iNOS expression at 2.5 to 10 mg/kg, sc administered for 3 consecutive days prior CCL4 challenge measured 12 to 24 hrs post challenge by Western blot method relative to control
# [4] = test system: Mus musculus; assay: Hepatoprotective activity in FVB mouse assessed as reduction of CCL4-induced increase of serum ALT level at 2.5 to 10 mg/kg, sc administered for 3 consecutive days prior CCL4 challenge measured 12 to 24 hrs post challenge
# [5] = test system: Mus musculus; assay: Hepatoprotective activity in CCL4-induced FVB mouse assessed as increase in HO-1 expression at 2.5 to 10 mg/kg, sc administered for 3 consecutive days prior CCL4 challenge measured 12 to 24 hrs post challenge by Western blot method relative to control
# [6] = test system: Mus musculus; assay: Hepatoprotective activity in CCL4-induced FVB mouse assessed as decrease in liver macrophages at 2.5 to 10 mg/kg, sc administered for 3 consecutive days prior CCL4 challenge measured 24 hrs post challenge by immunofluorescence staining method relative to control
# [7] = test system: Mus musculus; assay: Hepatoprotective activity in CCL4-induced FVB mouse assessed as decrease in COX2 expression at 2.5 to 10 mg/kg, sc administered for 3 consecutive days prior CCL4 challenge measured 12 to 24 hrs post challenge by Western blot method relative to control
# [8] = test system: Mus musculus; assay: Hepatoprotective activity in CCL4-induced FVB mouse assessed as restoration of Cu/Zn SOD expression at 2.5 to 10 mg/kg, sc administered for 3 consecutive days prior CCL4 challenge measured 12 to 24 hrs post challenge by Western blot method relative to control
# [9] = test system: Mus musculus; assay: Hepatoprotective activity in sc dosed CCL4-induced FVB mouse assessed as reduction in liver necrosis at administered for 3 consecutive days prior CCL4 challenge measured 24 hrs post challenge by hematoxylin/eosin-staining method relative to control
# [10] = test system: Mus musculus; assay: Hepatoprotective activity in CCL4-induced FVB mouse assessed as reduction in liver necrosis at 10 mg/kg, sc administered for 3 consecutive days prior CCL4 challenge measured 12 hrs post challenge by hematoxylin/eosin-staining method relative to control; set-up: dose 10 mg/kg
# [11] = test system: Mus musculus; assay: Hepatoprotective activity in CCL4-induced FVB mouse assessed as reduction in ROS level at 10 mg/kg, sc administered for 3 consecutive days prior CCL4 challenge measured 12 to 24 hrs post challenge by DHE-labeling method relative to control; set-up: dose 10 mg/kg
# [12] = test system: Mus musculus; assay: Hepatoprotective activity in CCL4-induced FVB mouse assessed as reduction in serum MDA level at 2.5 to 10 mg/kg, sc administered for 3 consecutive days prior CCL4 challenge measured 12 to 24 hrs post challenge relative to control
# [13] = test system: Mus musculus; assay: Hepatoprotective activity in CCL4-induced FVB mouse assessed as reduction in liver necrosis at 2.5 to 10 mg/kg, sc administered for 3 consecutive days prior CCL4 challenge measured 12 to 24 hrs post challenge by hematoxylin/eosin-staining method relative to control
# [14] = test system: Mus musculus; assay: Hepatoprotective activity in CCL4-induced FVB mouse assessed as increase in CYP2E1 p-nitrophenol activity at 2.5 to 10 mg/kg, sc administered for 3 consecutive days prior CCL4 challenge measured 12 to 24 hrs post challenge relative to control
# [15] = test system: Mus musculus; assay: Hepatoprotective activity in CCL4-induced FVB mouse assessed as decrease in cleaved caspase3-positive hepatocytes at 2.5 to 10 mg/kg, sc administered for 3 consecutive days prior CCL4 challenge measured 24 hrs post challenge by immunofluorescence staining method relative to control; details: Hepatocyte
# [16] = test system: Mus musculus; assay: Hepatoprotective activity in CCL4-induced FVB mouse assessed as effect on CYP2E1 expression at 2.5 to 10 mg/kg, sc administered for 3 consecutive days prior CCL4 challenge measured 12 to 24 hrs post challenge by Western blot method relative to control
compound,measurement,setting,value
CC1=CC(=O)[C@H](c2c(O)cc(/C=C/c3ccc(O)c(O)c3)oc2=O)[C@@H](c2ccc(O)c(O)c2)O1,Activity,[1],Active
same,Activity,[2],Active
same,Activity,[3],Active
same,Activity,[4],Active
same,Activity,[5],Active
same,Activity,[6],Active
same,Activity,[7],Active
same,Activity,[8],Active
same,Activity,[9],Dose-dependent effect
same,Activity,[10],Active
same,Activity,[11],Active
same,Activity,[12],Active
same,Activity,[13],Active
same,Activity,[14],Active
same,Activity,[15],Active
same,Activity,[16],inactive
